Values joined by “and” are separate entries in the source; they are usually repeats but may differ in a detail not shown here. Equal entries are not always repeated.
Key:
MEK1/2 and ERK1/2 = assay: Immunoblot of total and phosphorylated MEK1/2 and ERK1/2 (Figure 5G); format: cell-based, mouse; conditions: result in words
Protocol: Detailed lysis conditions, SDS–PAGE and transfer procedures, primary/secondary antibodies (including clones and catalog numbers), molecular weight markers, ECL detection, and ImageJ (NIH) quantification are described in Supplemental Methods.
(§1) MH9A4, Biolegend, Cat. No. 507605, PE/Cy7, clone MH9A4, Biolegend, Cat. No. […]
(§2) clone Mab11, Biolegend, Cat. No. 502908), Perforin (APC, clone dG9, Biolegend, Cat.
(§3) Flow cytometric acquisition was performed using a BD Fortessa or Cytek Aurora cytometer. Data were analyzed with FlowJo software (v10.8.1 or newer). Fluorescence compensation, isotype-matched controls, and fluorescence-minus-one (FMO) controls were applied as appropriate for multicolor panel validation.
Cells were washed twice with PBS and lysed in 1 × lysis buffer (NCM, Cat. No.
WB3100) supplemented with a protease inhibitor cocktail (Solarbio, Cat. No. P1260).
Protein lysates were separated by SDS-polyacrylamide gel electrophoresis (SDS-PA G E ; YEASEN, Cat. No. 20325ES62) and transferred to PVDF membranes for […]
Membranes were probed with the following primary antibodies: ERK1/2 (clone […]
BioLegend, Cat. No. 369502), MEK1/2 (clone L38C12, Cell Signaling Technology, Cat.
No. 4694S), phospho -MEK1/2 (clone 41G9, Cell Signaling Technology, Cat. No. […]
(Proteintech, Cat. No. 10745 -1-AP), Total Akt (Cell Signaling Technolo gy, Cat. No. […]

TNF-α in human Th9 cells = assay: Flow cytometry of TNF-α in human Th9 cells (Figure 8G); format: cell-based
Protocol: For Th9 polarization, cultures were supplemented with IL-4 (10 ng/mL, PeproTech, catalog AF-200-04), TGF-β (1 ng/mL), and neutralizing anti–IFN-γ monoclonal antibody (10 μg/mL, clone B27, BioXcell, catalog BE0245). After 3 days of initial culture, cells were either collected for downstream assays or continued in extended culture with refreshed cytokines to maintain lineage commitment without antibodies. Th9 cells were collected at days 4, 5, and 6 for subsequent in vitro assays. For adoptive transfer studies, day 4–cultured Th9 cells were washed and prepared for intravenous injection.
Details regarding staining panels (human and mouse), reagents (including clones and catalog numbers), acquisition settings, compensation/controls, and analysis procedures are provided in Supplemental Methods.
as §1, §2, §3
Cells were washed twice with PBS and lysed in 1 × lysis buffer (NCM, Cat. No. […]

[1] = system: mitochondria of Th9 cells; assay: Transmission electron microscopy of mitochondrial number and diameter (Figure 4J-K); format: cell-based, mouse
Protocol: Mitochondrial mass and membrane potential were assessed using MitoTracker™ Deep Red FM (Thermo Fisher Scientific, catalog M22426) and TMRM (tetramethylrhodamine methyl ester; Macklin, catalog T868125), respectively, following the manufacturers’ protocols. Cells were incubated with the respective dyes, washed, and subjected to flow cytometry or fluorescence microscopy analysis. For ultrastructural assessment, mitochondrial number and diameter were quantified from high-resolution transmission electron microscopy (TEM) images using ImageJ software.

dendritic cells (DCs) = assay: Flow cytometry of dendritic cells (S1J-K); format: in vivo, mouse; parameters: key to Frequencies of DC in Spleen / Frequencies of DC in LN: % of cells; conditions: for Frequencies of DC in LN: Supplemental Figure 1K left; for number of DC in LN: Supplemental Figure 1K right; for DC (CD11c) gate number: representative flow plot; for Frequencies of DC in Spleen: Supplemental Figure 1J left; for number of DC in Spleen: Supplemental Figure 1J right
Protocol: C57BL/6 mice were subcutaneously injected with 5 × 10^5 B16-OVA melanoma cells. Five days after tumor implantation, mice received an intravenous infusion of 2 × 10^6 in vitro–differentiated Th9 cells (cultured for 5 days), which were derived from OT-II CD45.1 donor mice, accompanied by 4 × 10^5 OVA peptide–pulsed DCs via the tail vein. To enhance T cell engraftment and facilitate lymphodepletion, a single intraperitoneal injection of cyclophosphamide (200 mg/kg, Sigma, catalog C0768) was administered 1 day prior to T cell transfer. Mice were euthanized at designated time points for the collection and analysis of spleens, tumor-draining lymph nodes, and tumor tissues.
Details regarding staining panels (human and mouse), reagents (including clones and catalog numbers), acquisition settings, compensation/controls, and analysis procedures are provided in Supplemental Methods. […]
Figure S1. EpA enhances immune responses. […]
Representative plots, frequencies, and total numbers of dendritic cells (DCs) in […]
spleens (J) and LNs (K). […]
Statistical analysis was performed using two-way ANOVA with Tukey’s post hoc test (A), one-way ANOVA with Tukey’s post hoc test (B) or two-tailed unpaired Student’s t-test (D and G–M). ns, not significant. *p < 0.05, **p < 0.01, ****p < 0.0001.
(also on this page, place not known: Mouse weight (g) CtrlEpA CtrlEpA CtrlEpA0 I CD45.1+ T cells (%) CtrlEpA CD4+ T cells (%) CtrlEpA CtrlEpA CtrlEpA FSC CD8 CD8 FSC FSC FSC BNumber of CD45.1+ T cells (×103 per mgĎ Number of CD4+ T cells (×104 per mgĎ DC (%)NK cells (%) NK cells (%) DC (%) Number of DC (×103 per mg) Number of NK cells (×105) Number of NK cells (×103 per mg) Number of DC (×105) FSC FSC FSC CD8 CtrlEpA CtrlEpA CtrlEpA CD8+ T cells (%) Number of CD8+ T cells (×104 per mgĎ nsns ns nsns ns 40 IL-6 (pg/ml))

Substance: anteiso-C15 Leu7 surfactin [EpA]
- MEK and ERK phosphorylation (MEK1/2 and ERK1/2): increased phosphorylation of MEK and ERK
- TNF-α production in human CD4⁺ T cells (flow cytometric analysis) (TNF-α in human Th9 cells; Figure 8G, Th9-polarizing conditions, individual replicates, one per column (n = 4)): 321000 and 314000 and 322000 and 302000
- TNF-α expression, human Th9 (TNF-α in human Th9 cells; result in words): higher TNF-α expression
- Number of mitochonodrion/cell ([1]; Figure 4J, individual cells): 12 and 23 and 11 and 16 and 10 and 21 and 9 and 17 and 6 and 7 and 24
- number and diameter of mitochondria ([1]; result in words): increased number and diameter of mitochondria
- Frequencies of DC in LN (dendritic cells (DCs); LN, replicate 1): 2.19
- Frequencies of DC in LN (dendritic cells (DCs); LN, replicate 2): 1.85
- Frequencies of DC in LN (dendritic cells (DCs); LN, replicate 3): 1.69
- Frequencies of DC in LN (dendritic cells (DCs); LN, replicate 4): 1.46
- number of DC in LN (dendritic cells (DCs); LN, replicate 1): 3234.29
- number of DC in LN (dendritic cells (DCs); LN, replicate 2): 2390.2
- number of DC in LN (dendritic cells (DCs); LN, replicate 3): 1334.11
- number of DC in LN (dendritic cells (DCs); LN, replicate 4): 1093.89
- DC (CD11c) gate number (dendritic cells (DCs); LN, Figure S1K): 2.19
- Frequencies of DC in Spleen (dendritic cells (DCs); Spleen, replicate 1): 1.58
- Frequencies of DC in Spleen (dendritic cells (DCs); Spleen, replicate 2): 1.85
- Frequencies of DC in Spleen (dendritic cells (DCs); Spleen, replicate 3): 1.61
- Frequencies of DC in Spleen (dendritic cells (DCs); Spleen, replicate 4): 3.57
- number of DC in Spleen (dendritic cells (DCs); Spleen, replicate 1): 143005
- number of DC in Spleen (dendritic cells (DCs); Spleen, replicate 2): 161881
- number of DC in Spleen (dendritic cells (DCs); Spleen, replicate 3): 145729
- number of DC in Spleen (dendritic cells (DCs); Spleen, replicate 4): 275281
- DC (CD11c) gate number (dendritic cells (DCs); Spleen, Figure S1J): 1.85
- DC frequencies and total counts (dendritic cells (DCs); spleens and lymph nodes, result in words): significantly elevated
